{"source": "paper PMC12367838", "about": "“Relevance of kinetic interactions and co-formulants for plant protection product liver toxicity in vitro” (Archives of Toxicology, 2025)", "key": {"[1]": {"test": "Neutral red uptake (NRU) cytotoxicity assay", "type": "cell-based, human", "conditions": "human, differentiated HepaRG cells, NRU assay, 72-h incubation", "method": "(§1) Wild-type human hepatoma HepaRG cells obtained from Biopredic International (Saint Grégoire, France) were cultivated for 4 weeks in a Binder cell culture incubator maintained at 37 °C in a 5% humidified atmosphere with 5% CO2 before they were employed in this study. The 4 weeks consisted of 2 weeks of proliferation and 2 weeks of differentiation. […]\n(§2) Cytotoxicity assays were performed in 96-well plates at a density of 9000 cells per well, and test compounds were incubated for 72 h. […] After the 30-min incubation with WST-1, absorbance was measured at 450 nm corrected by a reference at 620 nm (λexc = 450 nm/λemi = 620 nm) using an Infinite M200 PRO plate reader (Tecan; Männedorf, Switzerland). […] The absorbed dye was quantified by fluorescence measurement (λexc = 530 nm/λemi = 645 nm) on an Infinite M200 PRO plate reader (Tecan; Männedorf, Switzerland). Background corrected viability values of both assays were expressed as a percentage of untreated cells. […] Means and standard deviations for each treatment were calculated. […]"}, "WST-1 cytotoxicity assay": {"test": "WST-1 cytotoxicity assay", "type": "cell-based, human", "conditions": "human, differentiated HepaRG cells, WST-1 assay, 72 h incubation", "method": "as §1, §2"}, "[2]": {"test": "CYP450 reaction phenotyping, control-Silensomes", "type": "in vitro ADME, human", "source_text": "(§3) Silensomes™ CYP phenotyping kits (Lonza; Basel, Switzerland) contain human pooled liver microsomes (HLM) that are chemically and irreversibly inactivated by mechanism-based inhibitor for each specific CYP450 isoenzyme. Each CYP-Silensomes™ has a corresponding control that is produced the same way without inactivation. […] However, CYP2C19-Silensomes™ were not available for purchasing. The assay was essentially performed according to the instructions of the supplier. […] At 0, 10, 20, 30, and 45 min, 50 µL of the reaction volume was removed and put in a tube containing 50 µL of methanol to stop the CYP reactions. The tubes were allowed to stand at 4 °C for 1 h to allow protein precipitation to occur. Afterwards, the tubes were centrifuged at 3500 × g for 15 min at 4 °C before the supernatant was removed and analyzed using LC–MS/MS. The control experiments with the control HLM were performed at the same time as the Silensomes™. The in vitro intrinsic clearance (Clint) for each enzyme was calculated as follows: Clint (µL/min/mg) = (slope × V)/P, where the slope is the elimination rate constant (min^−1) for exponential substrate loss, V is the incubation volume (µL), and P is the microsomal protein (mg). The fraction metabolized by each CYP enzymes was determined as follows: fm = (1 – (Clint CYP-Silensomes™/Clint Control-Silensomes™)) × 100. […]"}, "CYP1A2": {"tested_on": "CYP1A2", "test": "CYP450 reaction phenotyping, CYP1A2-Silensomes", "type": "in vitro ADME, human", "source_text": "Silensomes™ CYP phenotyping kits (Lonza; Basel, Switzerland) contain human pooled liver microsomes (HLM) that are chemically and irreversibly inactivated by mechanism-based inhibitor for each specific CYP450 isoenzyme. Each CYP-Silensomes™ has a corresponding control that is produced the same way without inactivation. […] However, CYP2C19-Silensomes™ were not available for purchasing. The assay was essentially performed according to the instructions of the supplier. […] At 0, 10, 20, 30, and 45 min, 50 µL of the reaction volume was removed and put in a tube containing 50 µL of methanol to stop the CYP reactions. The tubes were allowed to stand at 4 °C for 1 h to allow protein precipitation to occur. Afterwards, the tubes were centrifuged at 3500 × g for 15 min at 4 °C before the supernatant was removed and analyzed using LC–MS/MS. The control experiments with the control HLM were performed at the same time as the Silensomes™. The in vitro intrinsic clearance (Clint) for each enzyme was calculated as follows: Clint (µL/min/mg) = (slope × V)/P, where the slope is the elimination rate constant (min^−1) for exponential substrate loss, V is the incubation volume (µL), and P is the microsomal protein (mg). The fraction metabolized by each CYP enzymes was determined as follows: fm = (1 – (Clint CYP-Silensomes™/Clint Control-Silensomes™)) × 100. Three independent experiments were conducted with the same batch of Silensomes™."}, "CYP2C9 [3]": {"tested_on": "CYP2C9", "test": "CYP450 reaction phenotyping, CYP2C9-Silensomes", "type": "in vitro ADME", "conditions": "human, pH 7.4", "source_text": "as §3"}, "CYP3A4 [4]": {"tested_on": "CYP3A4", "test": "CYP450 reaction phenotyping, CYP3A4-Silensomes", "type": "in vitro ADME, human", "source_text": "as §3"}, "CYP3A4 [5]": {"tested_on": "CYP3A4", "conditions": "clearance of DIF in healthy human adults; ref Wetmore et al. (2014); cited from earlier work"}, "CYP2C9 [6]": {"tested_on": "CYP2C9", "conditions": "clearance of DIF in healthy human adults; ref Wetmore et al. (2014); cited from earlier work"}, "UGT1A4": {"tested_on": "UGT1A4", "conditions": "clearance of DIF in healthy human adults; ref Wetmore et al. (2014); cited from earlier work"}, "HepaRG cells [7]": {"tested_on": "HepaRG cells", "test": "Total RNA sequencing, differential gene expression", "conditions": "24 h, vs solvent control"}, "HepaRG cells [8]": {"tested_on": "HepaRG cells", "test": "Quantification of DIF in cell culture supernatant (LC-MS/MS)", "conditions": "24-h treatment of HepaRG cells; µg DIF in medium/µg start concentration × 100%", "protocol": "HepaRG cells were incubated for 24 h at 37 °C and 5% CO2 in a humidified atmosphere with each test compound in treatment medium of 0.5% final DMSO concentration. After incubation, medium was harvested and cells were washed twice with 0.5 mL PBS, which was added to the harvested medium. Cell lysis was performed on ice by adding 0.55 mL of RIPA Lysis and Extraction Buffer (Thermo Fisher Scientific, Waltham, Massachusetts, USA) in each well. The experiment was conducted in duplicates, which were pooled to make a final volume of 3 mL for medium samples and 1.1 ml of the cell samples for each test compound. The Pierce™ BCA Protein Assay Kit (Thermo Fisher Scientific, Waltham, Massachusetts, USA) was utilized to quantify protein in 50 µL of the cell lysates in order to normalize the measured pesticide concentrations in cells to absolute protein quantities.\nBriefly, each of the 1.5 mL of medium samples and 500 µL cell samples was added to 50 mL centrifuge tubes. Up to 5 mL Milli-Q water was added followed by 10 mL acetonitrile. The mixture was shaken vigorously by a vortex mixer for 10 min. […]\nSamples from the CYP450 reaction phenotyping and pesticide quantification were analyzed with an Agilent 1290 Infinity II LC system coupled to Agilent 6475 triple quadrupole LC/MS systems (Agilent Technologies; Heilbronn, Germany). […]"}, "[9]": {"conditions": "high sub-cytotoxic concentration"}, "[10]": {"conditions": "low sub-cytotoxic concentration"}}}
{"smiles": "CC1COC(Cn2cncn2)(c2ccc(Oc3ccc(Cl)cc3)cc2Cl)O1", "note": "(centres unmarked) [DIF, difenoconazole]", "values": [{"measurement": "EC50 at 72 h", "setting": "[1]", "value": 15.9, "unit": "mg/L"}, {"measurement": "EC50 at 72 h", "setting": "WST-1 cytotoxicity assay", "value": 11.8, "unit": "mg/L"}, {"measurement": "DIF remaining, control-Silensomes", "setting": "[2]; after a 45-min incubation", "value": "about 20%"}, {"measurement": "microsomal CLint at 1 µM", "setting": "[2]; human, pH 7.4", "value": 15.7, "unit": "µL/min/mg"}, {"measurement": "CYP1A2 fm (fraction metabolized)", "setting": "CYP1A2; Silensomes vs control-Silensomes", "value": "≈ 0%"}, {"measurement": "DIF remaining, CYP1A2-Silensomes", "setting": "CYP1A2; after a 45-min incubation", "value": "about 20%"}, {"measurement": "microsomal CLint at 1 µM", "setting": "CYP1A2; human, pH 7.4", "value": 15.8, "unit": "µL/min/mg"}, {"measurement": "microsomal CLint at 1 µM", "setting": "CYP2C9 [3]", "value": 12.5, "unit": "µL/min/mg"}, {"measurement": "CLint, CYP3A4-Silensomes", "setting": "CYP3A4 [4]; 1 µM DIF, 1 mg/mL, 37 °C", "value": 9.27, "unit": "µL x min^−1 × mg^−1"}, {"measurement": "DIF remaining, CYP3A4-Silensomes", "setting": "CYP3A4 [4]; after 45 min", "value": "~40", "unit": "%"}, {"measurement": "CYP3A4 fm", "setting": "CYP3A4 [5]", "value": 43.3, "unit": "%"}, {"measurement": "CYP2C9 fm", "setting": "CYP2C9 [6]", "value": 5.41, "unit": "%"}, {"measurement": "UGT1A4 fm", "setting": "UGT1A4", "value": 4.55, "unit": "%"}, {"measurement": "ACOX1 log2FoldChange", "setting": "HepaRG cells [7]; [9]", "value": -0.02489}, {"measurement": "AHR log2FoldChange", "setting": "HepaRG cells [7]; [9]", "value": 0.5444}, {"measurement": "CD36 log2FoldChange", "setting": "HepaRG cells [7]; [9]", "value": -0.5278}, {"measurement": "FASN log2FoldChange", "setting": "HepaRG cells [7]; [9]", "value": -0.3325}, {"measurement": "INSIG1 log2FoldChange", "setting": "HepaRG cells [7]; [9]", "value": -1.049}, {"measurement": "MLXIPL log2FoldChange", "setting": "HepaRG cells [7]; [9]", "value": 0.2472}, {"measurement": "NR1H2 log2FoldChange", "setting": "HepaRG cells [7]; [9]", "value": 0.8621}, {"measurement": "NR1H4 log2FoldChange", "setting": "HepaRG cells [7]; [9]", "value": -0.4056}, {"measurement": "NR1I2 log2FoldChange", "setting": "HepaRG cells [7]; [9]", "value": 0.3067}, {"measurement": "NR1I3 log2FoldChange", "setting": "HepaRG cells [7]; [9]", "value": -1.429}, {"measurement": "NR3C1 log2FoldChange", "setting": "HepaRG cells [7]; [9]", "value": 0.4134}, {"measurement": "PPARA log2FoldChange", "setting": "HepaRG cells [7]; [9]", "value": -0.3067}, {"measurement": "PPARG log2FoldChange", "setting": "HepaRG cells [7]; [9]", "value": 2.421}, {"measurement": "RARA log2FoldChange", "setting": "HepaRG cells [7]; [9]", "value": 0.4466}, {"measurement": "RARB log2FoldChange", "setting": "HepaRG cells [7]; [9]", "value": 1.042}, {"measurement": "RARG log2FoldChange", "setting": "HepaRG cells [7]; [9]", "value": 0.1102}, {"measurement": "SCD log2FoldChange", "setting": "HepaRG cells [7]; [9]", "value": -0.7403}, {"measurement": "SREBF1 log2FoldChange", "setting": "HepaRG cells [7]; [9]", "value": -1.013}, {"measurement": "ACOX1 log2FoldChange", "setting": "HepaRG cells [7]; [10]", "value": 0.1757}, {"measurement": "AHR log2FoldChange", "setting": "HepaRG cells [7]; [10]", "value": -0.129}, {"measurement": "CD36 log2FoldChange", "setting": "HepaRG cells [7]; [10]", "value": 0.878}, {"measurement": "FASN log2FoldChange", "setting": "HepaRG cells [7]; [10]", "value": 0.4404}, {"measurement": "INSIG1 log2FoldChange", "setting": "HepaRG cells [7]; [10]", "value": 1.024}, {"measurement": "MLXIPL log2FoldChange", "setting": "HepaRG cells [7]; [10]", "value": 0.1497}, {"measurement": "NR1H2 log2FoldChange", "setting": "HepaRG cells [7]; [10]", "value": 0.1806}, {"measurement": "NR1H4 log2FoldChange", "setting": "HepaRG cells [7]; [10]", "value": 0.1474}, {"measurement": "NR1I2 log2FoldChange", "setting": "HepaRG cells [7]; [10]", "value": 0.3965}, {"measurement": "NR1I3 log2FoldChange", "setting": "HepaRG cells [7]; [10]", "value": -0.3855}, {"measurement": "NR3C1 log2FoldChange", "setting": "HepaRG cells [7]; [10]", "value": -0.2111}, {"measurement": "PPARA log2FoldChange", "setting": "HepaRG cells [7]; [10]", "value": 0.07836}, {"measurement": "PPARG log2FoldChange", "setting": "HepaRG cells [7]; [10]", "value": 0.2447}, {"measurement": "RARA log2FoldChange", "setting": "HepaRG cells [7]; [10]", "value": 0.1188}, {"measurement": "RARB log2FoldChange", "setting": "HepaRG cells [7]; [10]", "value": 0.3597}, {"measurement": "RARG log2FoldChange", "setting": "HepaRG cells [7]; [10]", "value": 0.07285}, {"measurement": "SCD log2FoldChange", "setting": "HepaRG cells [7]; [10]", "value": 0.5665}, {"measurement": "SREBF1 log2FoldChange", "setting": "HepaRG cells [7]; [10]", "value": -0.5234}, {"measurement": "DIF remaining in the cell culture medium", "setting": "HepaRG cells [8]", "value": "~4", "unit": "%"}]}
